{"source": "ChEMBL document CHEMBL1201862", "about": "“PubChem BioAssay data set” (2004)", "key": {"[1]": {"molecular_target": "Cytochrome P450 2C9 (Homo sapiens, UniProt P11712)", "sequence (P11712 whole entry)": "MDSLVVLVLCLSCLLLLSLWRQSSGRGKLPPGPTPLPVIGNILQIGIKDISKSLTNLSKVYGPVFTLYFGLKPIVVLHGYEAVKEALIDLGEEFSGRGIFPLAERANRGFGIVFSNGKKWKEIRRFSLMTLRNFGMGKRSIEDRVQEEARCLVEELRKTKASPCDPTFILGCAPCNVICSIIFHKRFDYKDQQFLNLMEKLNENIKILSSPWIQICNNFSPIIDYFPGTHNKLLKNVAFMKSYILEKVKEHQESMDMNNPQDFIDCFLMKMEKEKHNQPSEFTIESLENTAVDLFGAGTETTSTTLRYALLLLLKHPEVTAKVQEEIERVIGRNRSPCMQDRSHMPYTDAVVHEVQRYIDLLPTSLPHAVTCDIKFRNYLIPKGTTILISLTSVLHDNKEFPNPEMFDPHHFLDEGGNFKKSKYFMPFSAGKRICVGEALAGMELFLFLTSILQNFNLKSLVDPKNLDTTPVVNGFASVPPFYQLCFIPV"}, "[2]": {"molecular_target": "Cytochrome P450 2C19 (Homo sapiens, UniProt P33261)", "sequence (P33261 whole entry)": "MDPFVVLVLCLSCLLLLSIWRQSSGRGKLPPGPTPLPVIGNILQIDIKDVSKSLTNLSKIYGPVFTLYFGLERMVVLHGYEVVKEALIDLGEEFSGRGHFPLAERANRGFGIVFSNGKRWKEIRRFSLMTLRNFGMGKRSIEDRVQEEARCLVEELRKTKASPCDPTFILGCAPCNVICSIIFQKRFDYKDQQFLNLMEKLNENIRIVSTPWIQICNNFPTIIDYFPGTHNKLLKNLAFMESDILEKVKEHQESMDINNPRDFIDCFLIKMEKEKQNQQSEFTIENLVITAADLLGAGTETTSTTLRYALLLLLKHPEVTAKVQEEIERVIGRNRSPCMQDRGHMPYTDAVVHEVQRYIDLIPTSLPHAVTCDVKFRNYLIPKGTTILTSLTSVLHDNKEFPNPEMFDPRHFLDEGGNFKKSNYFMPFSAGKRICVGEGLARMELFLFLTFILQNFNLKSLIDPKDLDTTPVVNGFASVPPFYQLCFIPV", "test": "Cytochrome panel assay with activity outcomes. Panel member name: p450-cyp2c19 Compounds with AC50 equal or less than 10 uM are considered active", "assay_type": "functional"}, "[3]": {"molecular_target": "Cytochrome P450 2D6 (Homo sapiens, UniProt P10635)", "sequence (P10635 whole entry)": "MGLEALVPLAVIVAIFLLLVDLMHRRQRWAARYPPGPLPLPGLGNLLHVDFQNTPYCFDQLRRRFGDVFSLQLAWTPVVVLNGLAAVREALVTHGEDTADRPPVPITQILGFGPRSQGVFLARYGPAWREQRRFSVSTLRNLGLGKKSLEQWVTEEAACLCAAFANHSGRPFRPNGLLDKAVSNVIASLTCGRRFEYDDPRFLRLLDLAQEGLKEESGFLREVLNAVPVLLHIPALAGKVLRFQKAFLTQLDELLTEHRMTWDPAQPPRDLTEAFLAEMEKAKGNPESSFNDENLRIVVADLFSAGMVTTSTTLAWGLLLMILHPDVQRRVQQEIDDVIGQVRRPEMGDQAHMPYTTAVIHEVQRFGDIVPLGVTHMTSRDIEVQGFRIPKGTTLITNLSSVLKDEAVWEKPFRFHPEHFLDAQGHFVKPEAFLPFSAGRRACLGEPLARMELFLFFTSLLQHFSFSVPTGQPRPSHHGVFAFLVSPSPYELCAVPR"}, "[4]": {"molecular_target": "T1, Heat shock factor protein 1 (Mus musculus, UniProt P38532)", "T1 sequence (P38532 whole entry)": "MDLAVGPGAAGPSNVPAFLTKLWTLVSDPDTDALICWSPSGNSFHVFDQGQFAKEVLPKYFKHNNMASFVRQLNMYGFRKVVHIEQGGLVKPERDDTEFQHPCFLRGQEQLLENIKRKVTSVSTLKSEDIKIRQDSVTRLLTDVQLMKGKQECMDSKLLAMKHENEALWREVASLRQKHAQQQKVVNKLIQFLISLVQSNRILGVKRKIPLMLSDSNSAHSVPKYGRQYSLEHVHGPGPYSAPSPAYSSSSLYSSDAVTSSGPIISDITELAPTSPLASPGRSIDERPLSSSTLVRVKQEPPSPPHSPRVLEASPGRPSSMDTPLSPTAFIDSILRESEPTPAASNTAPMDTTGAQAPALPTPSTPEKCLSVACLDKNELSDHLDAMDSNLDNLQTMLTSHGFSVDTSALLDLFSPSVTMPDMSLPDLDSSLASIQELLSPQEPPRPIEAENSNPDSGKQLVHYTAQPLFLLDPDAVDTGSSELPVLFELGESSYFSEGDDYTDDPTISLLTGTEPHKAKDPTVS", "test": "inhibition of MG132-induced HSE-luciferase signal, confirmation, cell-based, NIH3T3, luminescence, dose retest (AID 2382);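 note: NIH3T3 fibroblasts with HSF1-driven luciferase reporter stressed by proteasome inhibitor MG132; luminescence from HSF1-driven luciferase expression after 8 hours of MG132 stress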", "assay_type": "functional"}, "[5]": {"molecular_target": "Cytochrome P450 3A4 (Homo sapiens, UniProt P08684)", "sequence (P08684 whole entry)": "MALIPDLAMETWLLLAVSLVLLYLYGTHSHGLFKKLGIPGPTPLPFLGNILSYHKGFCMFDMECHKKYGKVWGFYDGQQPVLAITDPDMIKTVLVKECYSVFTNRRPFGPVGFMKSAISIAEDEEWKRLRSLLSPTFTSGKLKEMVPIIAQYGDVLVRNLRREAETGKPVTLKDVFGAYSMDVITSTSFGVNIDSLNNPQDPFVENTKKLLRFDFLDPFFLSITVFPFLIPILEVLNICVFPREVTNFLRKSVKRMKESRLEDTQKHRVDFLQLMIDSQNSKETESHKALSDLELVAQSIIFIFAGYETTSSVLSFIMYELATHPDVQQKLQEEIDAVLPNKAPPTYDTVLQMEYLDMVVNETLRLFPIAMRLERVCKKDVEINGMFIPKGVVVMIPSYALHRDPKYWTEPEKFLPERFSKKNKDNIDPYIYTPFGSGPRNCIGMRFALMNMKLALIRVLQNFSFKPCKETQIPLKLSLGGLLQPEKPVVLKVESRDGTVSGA"}}, "note": "The source made the active and inactive calls.", "data": [{"compound": "CCOc1ccc(OCC)c(NC(=O)C2CCCN(S(=O)(=O)c3cccs3)C2)c1", "note": "(centres undefined)", "values": [{"measurement": "AC50", "setting": "[1]", "value": "2.51 µM (inconclusive)"}, {"measurement": "AC50", "setting": "[2]; read-out: AC50", "value": "2.82 µM (inconclusive)"}]}, {"compound": "CCCc1cc2c(n1CCO)C(C)C1CN(C(=O)c3ccccc3)C(C)(C(=O)OC)C21", "note": "(centres undefined)", "values": [{"measurement": "AC50", "setting": "[2]; read-out: AC50", "value": "3.16 µM (inconclusive)"}]}, {"compound": "CCN1C(=O)C(CC(=O)Nc2ccc(OC)cc2)N(Cc2cccs2)C1=S", "note": "(centres undefined)", "values": [{"measurement": "AC50", "setting": "[3]", "value": "14.1 µM (inconclusive)"}]}, {"compound": "COc1cccc(C(=O)Nc2nc3c(s2)CN(C)CC3)c1", "values": [{"measurement": "AC50", "setting": "[3]", "value": "25.1 µM (inconclusive)"}]}, {"compound": "COc1ccc2nc3c(O)n(CCCN4CCOCC4)cnc-3c2c1", "values": [{"measurement": "EC50", "setting": "[4]", "value": "> 195 µM (not active)"}]}, {"compound": "CCc1ccc(NC(=O)CSc2ccc(-c3cccnc3)nn2)cc1", "values": [{"measurement": "EC50", "setting": "[4]", "value": "> 195 µM (not active)"}]}, {"compound": "COCCN(C(=O)COC(=O)/C=C/c1ccc(C(F)(F)F)cc1)c1c(N)n(Cc2ccccc2)c(=O)[nH]c1=O", "values": [{"measurement": "EC50", "setting": "[4]", "value": "> 195 µM (not active)"}]}, {"compound": "COCCn1c(=O)c(-c2ccc(OC)cc2)nc2cnc(OCc3ccccc3)nc21", "values": [{"measurement": "AC50", "setting": "[5]", "value": "25.1 µM (inconclusive)"}]}, {"compound": "Nc1ccccc1S[C@@H](C[N+](=O)[O-])c1ccc2c(c1)OCO2", "values": [{"measurement": "AC50", "setting": "[1]", "value": "6.31 µM (inconclusive)"}, {"measurement": "AC50", "setting": "[5]", "value": "2.51 µM (inconclusive)"}]}, {"compound": "Cc1ccc(C(=O)Nc2ccccc2C(=O)O)cc1S(=O)(=O)NCc1ccccc1", "values": [{"measurement": "EC50", "setting": "[4]", "value": "> 195 µM (not active)"}]}, {"compound": "Cc1cc([N+](=O)[O-])nn1CC(=O)NCc1nc2ccccc2[nH]1", "values": [{"measurement": "EC50", "setting": "[4]", "value": "> 195 µM (not active)"}]}, {"compound": "O=C(COC(=O)c1cnccn1)Nc1ccc(Cl)cn1", "values": [{"measurement": "EC50", "setting": "[4]", "value": "> 195 µM (not active)"}]}, {"compound": "CCCCCCN1CC(=O)N2[C@@H](Cc3c([nH]c4ccccc34)C2(C)C)C1=O", "values": [{"measurement": "EC50", "setting": "[4]", "value": "> 195 µM (not active)"}]}, {"compound": "COc1ccc(NC(=O)Cn2c(=O)n(Cc3ccco3)c(=O)c3ccccc32)cc1", "values": [{"measurement": "EC50", "setting": "[4]", "value": "> 195 µM (not active)"}]}, {"compound": "COn1c(-c2ccccc2)nc2c1CCc1nonc1-2", "values": [{"measurement": "AC50", "setting": "[1]", "value": "25.1 µM (inconclusive)"}, {"measurement": "AC50", "setting": "[5]", "value": "31.6 µM (inconclusive)"}]}, {"compound": "COc1ccccc1NC(=O)C1CCN(C(=O)C2CC(=O)N(c3ccc(C)cc3)C2)CC1", "note": "(centres undefined)", "values": [{"measurement": "EC50", "setting": "[4]", "value": "> 195 µM (not active)"}]}, {"compound": "N#CC1=C(N)N(c2ccc(Oc3ccccc3)cc2)C(=O)C1", "values": [{"measurement": "EC50", "setting": "[4]", "value": "> 195 µM (not active)"}]}, {"compound": "CC(=O)Nc1ccc(OS(=O)(=O)c2ccccc2C)cc1", "values": [{"measurement": "EC50", "setting": "[4]", "value": "> 195 µM (not active)"}]}, {"compound": "O[C@@H](COc1cccc2ccccc12)CN1CCOCC1", "values": [{"measurement": "AC50", "setting": "[2]; read-out: AC50", "value": "0.0501 µM (inconclusive)"}]}, {"compound": "O=C(Nc1cccnc1)c1noc2c1CCCCC2", "values": [{"measurement": "EC50", "setting": "[4]", "value": "0.288 µM (active)"}]}, {"compound": "O=S(=O)(NCc1ccc(C(F)(F)F)cc1)c1ccc(-n2cnnn2)cc1", "values": [{"measurement": "EC50", "setting": "[4]", "value": "> 195 µM (not active)"}]}, {"compound": "CCN(CC)C(=O)CSc1nnc(CNc2ccc(F)cc2)o1", "values": [{"measurement": "AC50", "setting": "[2]; read-out: AC50", "value": "22.4 µM (inconclusive)"}, {"measurement": "AC50", "setting": "[5]", "value": "25.1 µM (inconclusive)"}]}, {"compound": "O=C(c1ccco1)N1CCN(S(=O)(=O)/C=C/c2ccccc2)CC1", "values": [{"measurement": "EC50", "setting": "[4]", "value": "> 195 µM (not active)"}]}, {"compound": "CCOC(=O)c1cncc(C(=O)O)c1", "values": [{"measurement": "AC50", "setting": "[2]; read-out: AC50", "value": "31.6 µM (inconclusive)"}]}, {"compound": "Cn1c(=O)c(-c2ccccc2)nc2cnc(N3CCNCC3)nc21", "values": [{"measurement": "AC50", "setting": "[1]", "value": "15.8 µM (inconclusive)"}, {"measurement": "AC50", "setting": "[2]; read-out: AC50", "value": "39.8 µM (inconclusive)"}]}, {"compound": "COc1ccc2[nH]cc(CCNc3ccnc(-c4cccc(NS(C)(=O)=O)c4)n3)c2c1", "values": [{"measurement": "AC50", "setting": "[1]", "value": "0.126 µM (inconclusive)"}, {"measurement": "AC50", "setting": "[5]", "value": "2.51 µM (inconclusive)"}]}, {"compound": "COc1ccccc1CN(C)C(=O)C1COc2ccccc2O1", "note": "(centres undefined)", "values": [{"measurement": "EC50", "setting": "[4]", "value": "> 195 µM (not active)"}]}, {"compound": "Sc1c2ncnc-2ncn1CCSc1[nH]cnc2ncnc1-2", "values": [{"measurement": "AC50", "setting": "[2]", "value": "inconclusive"}]}, {"compound": "CCOP(=O)(OCC)C(NC(=O)C(Cl)Cl)C(Cl)(Cl)Cl", "note": "(centres undefined)", "values": [{"measurement": "AC50", "setting": "[1]", "value": "39.8 µM (inconclusive)"}, {"measurement": "AC50", "setting": "[5]", "value": "31.6 µM (inconclusive)"}]}, {"compound": "CCN(CC)C(=O)C1CCCN(c2ccc([N+](=O)[O-])cc2/C=N/NC(=O)c2ccc([N+](=O)[O-])cc2)C1", "note": "(centres undefined)", "values": [{"measurement": "EC50", "setting": "[4]", "value": "> 195 µM (not active)"}, {"measurement": "AC50", "setting": "[5]", "value": "2.82 µM (inconclusive)"}]}, {"compound": "CCCCCCCCC(=O)N/N=C/c1cccc(Br)c1", "values": [{"measurement": "AC50", "setting": "[3]", "value": "7.08 µM (inconclusive)"}]}, {"compound": "Cc1ccc(C(=O)N/N=C/c2nc3ccccc3n2C)cc1", "values": [{"measurement": "AC50", "setting": "[1]", "value": "12.6 µM (inconclusive)"}, {"measurement": "AC50", "setting": "[2]; read-out: AC50", "value": "15.8 µM (inconclusive)"}, {"measurement": "AC50", "setting": "[5]", "value": "3.16 µM (inconclusive)"}]}, {"compound": "COc1ccc(/C=C/C(=O)Oc2ccc(/C=N/NC(=O)COc3c(C)cccc3C)cc2)cc1", "values": [{"measurement": "EC50", "setting": "[4]", "value": "> 195 µM (not active)"}]}, {"compound": "CC(=O)SCC[N+](C)(C)C", "note": "[ACETYLTHIOCHOLINE]", "values": [{"measurement": "AC50", "setting": "[2]", "value": "inconclusive"}]}]}
